Assay: Pharmacokinetic study in rats after oral administration (UHPLC-ESI-MS/MS of plasma)
Settings: for half-life: male, Sprague Dawley, rat, in vivo, po

Structure (SMILES): C[C@@H]1CC[C@H]2[C@@H](C)C(=O)O[C@@H]3O[C@@]4(C)CC[C@@H]1[C@]32OO4 [ART, Artemisinin, reference compound]
- half-life (100 mg/kg, t1/2, rat plasma, ART after gavage of pure ART (PU) 100 mg/kg, n = 6): 65.9 ± 20.1 min
- half-life (100 mg/kg, t1/2z, pure artemisinin, rat plasma, DAS 2.0, Mean of 6 rats): 65.9 min
- half-life (352 mg/kg, t1/2, rat plasma, component after gavage of nACTs 352 mg/kg, n = 6): 106 ± 56.3 min
- Cz(尾点回归值) (pure artemisinin, rat plasma, DAS 2.0, individual rats No1-No6): 14.237 mg/L

— article PMC12058161, “The plant matrix of Artemisia annua L. for the treatment of malaria: Pharmacodynamic and pharmacokinetic studies” (PLOS One, 2025)
